These compounds were tested against Trypanosoma cruzi glucokinase (TcGlcK) (Trypanosoma cruzi, UniProt Q4E4E1) (assay: Determination of Ki values by type 1 and type 2 Dixon plots;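 also: compounds supplied as 10 mM DMSO stocks (100 µL format), with a non-inhibitory compound run alongside for comparison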).
Assay type: biochemical
Description: The inhibition constant can be determined by development of a Dixon plot (either type 1 or type 2) according to standard practice, and as utilized herein refers to the inhibitor concentration at which half maximum inhibition is determined for a 100 μL/10 mM format in DMSO.
Determination of the Ki values for inhibitors was performed by creation of both type 1 and type 2 Dixon plots. The format included 100 μL/10 mM in DMSO.

Trypanosoma cruzi glucokinase (TcGlcK), sequence (Q4E4E1 1-376): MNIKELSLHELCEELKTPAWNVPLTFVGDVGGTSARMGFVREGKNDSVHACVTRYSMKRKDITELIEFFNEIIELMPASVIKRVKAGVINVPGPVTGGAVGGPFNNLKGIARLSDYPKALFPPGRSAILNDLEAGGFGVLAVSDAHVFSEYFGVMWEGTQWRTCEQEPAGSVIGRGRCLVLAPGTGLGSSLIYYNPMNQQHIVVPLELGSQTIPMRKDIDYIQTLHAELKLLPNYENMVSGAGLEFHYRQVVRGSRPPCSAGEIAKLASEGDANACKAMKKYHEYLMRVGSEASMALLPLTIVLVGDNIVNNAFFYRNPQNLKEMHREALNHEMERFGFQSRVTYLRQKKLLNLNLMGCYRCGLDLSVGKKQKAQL

How did the Ki turn out when `Cc1cc2c(c(O)c1-c1c(C)cc3c(c1O)/C(=C/NCCO)C(=O)C(O)=C3C(C)C)/C(=C/NCCO)C(=O)C(O)=C2C(C)C` (atropisomer, axis not shown) [Inhibitor 13] was run?
Its Ki is 422 µM.

How did the Ki turn out when `Cc1cc2c(c(O)c1-c1c(C)cc3c(c1O)/C(=C/Nc1ccccc1O)C(=O)C(O)=C3C(C)C)/C(=C/Nc1ccccc1O)C(=O)C(O)=C2C(C)C` (atropisomer, axis not shown) [Inhibitor 14] was run?
The Ki was 468 µM.

`Cc1cc2c(c(O)c1-c1c(C)cc3c(c1O)/C(=C/Nc1ccccc1C(=O)O)C(=O)C(O)=C3C(C)C)/C(=C/Nc1ccccc1C(=O)O)C(=O)C(O)=C2C(C)C` (atropisomer, axis not shown) [Inhibitor 15] was tested. Which Ki did it give?
The Ki was 1.2 µM.

How did the Ki turn out when `Cc1cc(-c2ccc(N/C=C3\C(=O)C(O)=C(C(C)C)c4cc(C)c(-c5c(C)cc6c(c5O)/C(=C/Nc5ccc(-c7ccc(N)c(C)c7)cc5C)C(=O)C(O)=C6C(C)C)c(O)c43)c(C)c2)ccc1N` (atropisomer, axis not shown) [Inhibitor 17] was run?
Its Ki is 532 µM.

How did the Ki turn out when `Cc1cc2c(c(O)c1-c1c(C)cc3c(c1O)/C(=C/Nc1ccc(N=Nc4ccccc4)cc1)C(=O)C(O)=C3C(C)C)/C(=C/Nc1ccc(N=Nc3ccccc3)cc1)C(=O)C(O)=C2C(C)C` (atropisomer, axis not shown) [Inhibitor 18] was run?
The Ki was 45.5 µM.

`CC(=O)c1ccc(N/C=C2\C(=O)C(O)=C(C(C)C)c3cc(C)c(-c4c(C)cc5c(c4O)/C(=C/Nc4ccc(C(C)=O)cc4)C(=O)C(O)=C5C(C)C)c(O)c32)cc1` (atropisomer, axis not shown) [Inhibitor 19] was tested. Which Ki did it give?
The Ki was 10.4 µM.

For `COc1cc(NS(=O)(=O)c2ccc(N/C=C3\C(=O)C(O)=C(C(C)C)c4cc(C)c(-c5c(C)cc6c(c5O)/C(=C/Nc5ccc(S(=O)(=O)Nc7cc(OC)nc(OC)n7)cc5)C(=O)C(O)=C6C(C)C)c(O)c43)cc2)nc(OC)n1` (atropisomer, axis not shown) [Inhibitor 20], which Ki is on record?
The Ki was 11.2 µM.

For `Cc1cc2c(c(O)c1-c1c(C)cc3c(c1O)/C(=C/Nc1c(C)n(C)n(-c4ccccc4)c1=O)C(=O)C(O)=C3C(C)C)/C(=C/Nc1c(C)n(C)n(-c3ccccc3)c1=O)C(=O)C(O)=C2C(C)C` (atropisomer, axis not shown) [Inhibitor 21], which Ki is on record?
The Ki was 9.5 µM.

With `Cc1cc2c(c(O)c1-c1c(C)cc3c(c1O)/C(=C/Nc1ccc(S(=O)(=O)Nc4nccs4)cc1)C(=O)C(O)=C3C(C)C)/C(=C/Nc1ccc(S(=O)(=O)Nc3nccs3)cc1)C(=O)C(O)=C2C(C)C` (atropisomer, axis not shown) [Inhibitor 23] as the compound, how does the Ki read?
Its Ki is 32.3 µM.

How did the Ki turn out when `Cc1cc2c(c(O)c1-c1c(C)cc3c(c1O)/C(=C/Nc1ccc(S(N)(=O)=O)cc1)C(=O)C(O)=C3C(C)C)/C(=C/Nc1ccc(S(N)(=O)=O)cc1)C(=O)C(O)=C2C(C)C` (atropisomer, axis not shown) [Inhibitor 25] was run?
Its Ki is 74.3 µM.

How did the Ki turn out when `Cc1cc2c(c(O)c1-c1c(C)cc3c(c1O)/C(=C/NNC(=O)c1ccncc1)C(=O)C(O)=C3C(C)C)/C(=C/NNC(=O)c1ccncc1)C(=O)C(O)=C2C(C)C` (atropisomer, axis not shown) [Inhibitor 26] was run?
Its Ki is 213 µM.

How did the Ki turn out when `Cc1cc2c(C(C)C)c(O)c(O)c(/C=N/n3c(=O)[nH][nH]c3=O)c2c(O)c1-c1c(C)cc2c(C(C)C)c(O)c(O)c(/C=N/n3c(=O)[nH][nH]c3=O)c2c1O` (atropisomer, axis not shown) [Inhibitor 33] was run?
The Ki was 122 µM.

How did the Ki turn out when `Cc1cc2c(C(C)C)c(O)c(O)c(/C=N/NC(=O)c3ccoc3C)c2c(O)c1-c1c(C)cc2c(C(C)C)c(O)c(O)c(/C=N/NC(=O)c3ccoc3C)c2c1O` (atropisomer, axis not shown) [Inhibitor 39] was run?
Its Ki is 9.16 µM.

Which Ki does the source give for `COc1ccc(OCC/N=C/c2c(O)c(O)c(C(C)C)c3cc(C)c(-c4c(C)cc5c(C(C)C)c(O)c(O)c(/C=N/CCOc6ccc(OC)cc6)c5c4O)c(O)c23)cc1` (atropisomer, axis not shown) [Inhibitor 40] here?
The Ki was 29.4 µM.

How did the Ki turn out when `Cc1cc2c(C(C)C)c(O)c(O)c(/C=N/CCOc3ccc4c(c3)OCC4)c2c(O)c1-c1c(C)cc2c(C(C)C)c(O)c(O)c(/C=N/CCOc3ccc4c(c3)OCO4)c2c1O` (atropisomer, axis not shown) [Inhibitor 41] was run?
Its Ki is 328 µM.

Reference: patent US20250114359A1, “METHODS FOR […] G[…]/OR HEXOKINASE” (UNIVERSITY OF SOUTH CAROLINA, priority 2023, published 2025)
